Test results: PubChem BioAssay AID330 (DTP/NCI, 2004)
Several values for one entry are separate records, joined by “and”; a condition that tells them apart may be missing. Identical values can stand only once. Inconclusive results and toxic doses are left out. How the source made its calls: active means survival T/C of 150% or more; inactive means T/C below 125% in these data.

Tested on: P388 leukemia ip, CD2F1 mice, survival T/C
Test: NCI In Vivo Anticancer Drug Screen. Data for tumor model P388 Leukemia (intraperitoneal) in CD2F1 (CDF1) mice
Conditions: endpoint: median survival time, higher = longer survival
Outline: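 Mice carrying the transplanted tumor received test compound or vehicle. Survival was recorded in each group, and the value is the treated-group measurement divided by that of the vehicle-treated control group.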

[1] = dose: 50.0 mg/kg/injection, schedule: Q04DX003 (ip), vehicle: saline with Tween-80
[2] = dose: 50.0 mg/kg/injection, schedule: Q01DX005 (ip), vehicle: Klucel (hydroxypropylcellulose) (HPC)
[3] = dose: 100.0 mg/kg/injection, schedule: Q01DX005 (ip), vehicle: Klucel (hydroxypropylcellulose) (HPC)
[4] = dose: 200.0 mg/kg/injection, schedule: Q01DX005 (ip), vehicle: Klucel (hydroxypropylcellulose) (HPC)
[5] = dose: 50.0 mg/kg/injection, schedule: Q01DX009 (ip), vehicle: Klucel (hydroxypropylcellulose) (HPC)
[6] = dose: 100.0 mg/kg/injection, schedule: Q01DX009 (ip), vehicle: Klucel (hydroxypropylcellulose) (HPC)
[7] = dose: 200.0 mg/kg/injection, schedule: Q01DX009 (ip), vehicle: Klucel (hydroxypropylcellulose) (HPC)
[8] = dose: 60.0 mg/kg/injection, schedule: Q01DX005 (ip), vehicle: saline with Tween-80
[9] = dose: 120.0 mg/kg/injection, schedule: Q01DX005 (ip), vehicle: saline with Tween-80
[10] = dose: 240.0 mg/kg/injection, schedule: Q01DX005 (ip), vehicle: saline with Tween-80
[11] = dose: 50.0 mg/kg/injection, schedule: Q01DX009 (ip), vehicle: saline
[12] = dose: 50.0 mg/kg/injection, schedule: Q01DX005 (ip), vehicle: saline with Tween-80
[13] = dose: 100.0 mg/kg/injection, schedule: Q01DX005 (ip), vehicle: saline with Tween-80
[14] = dose: 200.0 mg/kg/injection, schedule: Q01DX005 (ip), vehicle: saline with Tween-80
[15] = dose: 50.0 mg/kg/injection, schedule: Q01DX009 (ip), vehicle: saline with Tween-80

Measured: T/C

C=CC[P+](Cc1ccccc1)(c1ccccc1)c1ccccc1
inactive: dose: 0.78 mg/kg/injection, schedule: Q01DX009 (ip), vehicle: saline 107 % of control | dose: 1.56 mg/kg/injection, schedule: Q01DX009 (ip), vehicle: saline 103 % of control | dose: 3.13 mg/kg/injection, schedule: Q01DX009 (ip), vehicle: saline 96 % of control

Nc1nc(-c2cc(-c3cccc4ccccc34)nc(N)n2)cc(-c2cccc3ccccc23)n1
inactive: dose: 60.0 mg/kg/injection, schedule: Q01DX005 (ip), vehicle: suspension in saline 101 % of control | dose: 120.0 mg/kg/injection, schedule: Q01DX005 (ip), vehicle: suspension in saline 100 % of control | dose: 240.0 mg/kg/injection, schedule: Q01DX005 (ip), vehicle: suspension in saline 105 % of control

COC(/C=N/OC(=O)c1ccccc1)c1ccccc1 (stereo not given)
inactive: dose: 25.0 mg/kg/injection, schedule: Q04DX003 (ip), vehicle: saline with Tween-80 98 % of control and 90 % of control | [1] 92 % of control

Nc1ccc(N=Nc2cccc3c(N=Nc4ccc(N)nc4N)cccc23)c(N)n1
inactive: dose: 25.0 mg/kg/injection, schedule: Q01DX005 (ip), vehicle: Klucel (hydroxypropylcellulose) (HPC) 97 % of control | [2] 100 % of control | [3] 98 % of control | [4] 93 % of control

CC1CN2C(=O)C1(c1ccccc1)C(=O)NC2=S (stereo not given)
inactive: [5] 98 % of control | [6] 107 % of control | [7] 100 % of control

CN(C)c1ccc(C=NCCCN2CCN(CCCN=Cc3ccc(N(C)C)cc3)CC2)cc1
inactive: dose: 12.5 mg/kg/injection, schedule: Q01DX009 (ip), vehicle: Klucel (hydroxypropylcellulose) (HPC) 93 % of control | dose: 25.0 mg/kg/injection, schedule: Q01DX009 (ip), vehicle: Klucel (hydroxypropylcellulose) (HPC) 99 % of control | [5] 104 % of control | [6] 112 % of control | [7] 105 % of control

CCCCCCNC(C)C
inactive: dose: 50.0 mg/kg/injection, schedule: Q01DX005 (ip), vehicle: saline 104 % of control | dose: 100.0 mg/kg/injection, schedule: Q01DX005 (ip), vehicle: saline 101 % of control

COc1cc2c(cc1OC)C1C(CO)c3ccc(OC)c(OC)c3CN1CC2 (stereo not given)
inactive: dose: 50.0 mg/kg/injection, schedule: Q04DX003 (ip), vehicle: distilled water + Tween-80 96 % of control | dose: 100.0 mg/kg/injection, schedule: Q04DX003 (ip), vehicle: distilled water + Tween-80 93 % of control | dose: 200.0 mg/kg/injection, schedule: Q04DX003 (ip), vehicle: distilled water + Tween-80 87 % of control | dose: 400.0 mg/kg/injection, schedule: Q04DX003 (ip), vehicle: distilled water + Tween-80 91 % of control

Nc1ccc(Cl)cc1C(=O)c1ccccc1Cl
inactive: [8] 96 % of control | [9] 96 % of control | [10] 90 % of control

CCCCNC(C)(C)C(SSSC(c1ccco1)C(C)(C)NCCCC)c1ccco1 (stereo not given)
inactive: dose: 12.5 mg/kg/injection, schedule: Q01DX009 (ip), vehicle: saline 109 % of control | dose: 25.0 mg/kg/injection, schedule: Q01DX009 (ip), vehicle: saline 113 % of control | [11] 113 % of control | dose: 66.0 mg/kg/injection, schedule: Q04DX003 (ip), vehicle: saline 100 % of control | dose: 100.0 mg/kg/injection, schedule: Q04DX003 (ip), vehicle: saline 118 % of control | dose: 150.0 mg/kg/injection, schedule: Q04DX003 (ip), vehicle: saline 109 % of control

COc1cc2ccc(/C=C\[N+](=O)[O-])cc2cc1OC
inactive: dose: 3.13 mg/kg/injection, schedule: Q01DX009 (ip), vehicle: other 105 % of control | dose: 6.25 mg/kg/injection, schedule: Q01DX009 (ip), vehicle: other 108 % of control | dose: 12.5 mg/kg/injection, schedule: Q01DX009 (ip), vehicle: other 107 % of control | dose: 25.0 mg/kg/injection, schedule: Q01DX009 (ip), vehicle: other 108 % of control

O=c1cc(-c2ccccc2)oc2c(O)c(O)cc(O)c12
inactive: dose: 50.0 mg/kg/injection, schedule: Q04DX003 (ip), vehicle: Klucel (hydroxypropylcellulose) (HPC) 105 % of control | dose: 100.0 mg/kg/injection, schedule: Q04DX003 (ip), vehicle: Klucel (hydroxypropylcellulose) (HPC) 104 % of control | dose: 200.0 mg/kg/injection, schedule: Q04DX003 (ip), vehicle: Klucel (hydroxypropylcellulose) (HPC) 100 % of control | dose: 400.0 mg/kg/injection, schedule: Q04DX003 (ip), vehicle: Klucel (hydroxypropylcellulose) (HPC) 92 % of control

CO/N=C1/OC(=O)OCC1(c1ccccc1)c1ccccc1
inactive: [12] 100 % of control | [13] 104 % of control | [14] 100 % of control

Nc1ccn(C2OC(COP(=O)(O)O)C(O)C2O)c(=O)n1 (stereo not given) (tested in a mixture with another compound)
inactive: dose: 60.0 mg/kg/injection, schedule: Q01DX005 (ip), vehicle: Klucel (hydroxypropylcellulose) (HPC) 108 % of control | dose: 120.0 mg/kg/injection, schedule: Q01DX005 (ip), vehicle: Klucel (hydroxypropylcellulose) (HPC) 99 % of control | dose: 240.0 mg/kg/injection, schedule: Q01DX005 (ip), vehicle: Klucel (hydroxypropylcellulose) (HPC) 99 % of control

COc1ccc(C(Nc2ccccn2)c2cc(C(C)(C)C)c(O)c(C(C)(C)C)c2)cc1 (stereo not given)
inactive: [12] 88 % of control | [13] 91 % of control | [14] 95 % of control

CSc1nnc(CCC(=O)Nc2cc(Cl)ccc2Cl)o1
inactive: [8] 109 % of control | [9] 100 % of control | [10] 97 % of control

CCOC(=O)Nc1cc2c(c(N)n1)N=C(c1ccc(C(F)(F)F)cc1)CN2
inactive: dose: 2.5 mg/kg/injection, schedule: Q01DX009 (ip), vehicle: saline with Tween-80 109 % of control | dose: 5.0 mg/kg/injection, schedule: Q01DX009 (ip), vehicle: saline with Tween-80 111 % of control | dose: 7.5 mg/kg/injection, schedule: Q04DX003 (ip), vehicle: saline with Tween-80 101 % of control | dose: 10.0 mg/kg/injection, schedule: Q01DX009 (ip), vehicle: saline with Tween-80 111 % of control | dose: 12.5 mg/kg/injection, schedule: Q01DX009 (ip), vehicle: saline with Tween-80 86 % of control | dose: 15.0 mg/kg/injection, schedule: Q04DX003 (ip), vehicle: saline with Tween-80 104 % of control | dose: 22.5 mg/kg/injection, schedule: Q01DX001 (ip), vehicle: saline with Tween-80 101 % of control | dose: 25.0 mg/kg/injection, schedule: Q01DX009 (ip), vehicle: saline with Tween-80 111 % of control | dose: 30.0 mg/kg/injection, schedule: Q04DX003 (ip), vehicle: saline with Tween-80 101 % of control | dose: 45.0 mg/kg/injection, schedule: Q01DX001 (ip), vehicle: saline with Tween-80 94 % of control | [15] 117 % of control | dose: 90.0 mg/kg/injection, schedule: Q01DX001 (ip), vehicle: saline with Tween-80 101 % of control

CCOC(=O)NC(=S)Nc1cccs1
inactive: [15] 91 % of control | dose: 100.0 mg/kg/injection, schedule: Q01DX009 (ip), vehicle: saline with Tween-80 100 % of control | dose: 200.0 mg/kg/injection, schedule: Q01DX009 (ip), vehicle: saline with Tween-80 101 % of control

O=C(NCCCCNC(=O)C12CC3CC(CC(C3)C1)C2)C12CC3CC(CC(C3)C1)C2
inactive: [2] 90 % of control | [3] 90 % of control | [4] 86 % of control

Cc1cc(Cl)ccc1NC(=O)COc1ccc(Cl)cc1Cl
inactive: [1] 100 % of control | dose: 100.0 mg/kg/injection, schedule: Q04DX003 (ip), vehicle: saline with Tween-80 95 % of control | dose: 200.0 mg/kg/injection, schedule: Q04DX003 (ip), vehicle: saline with Tween-80 90 % of control

Nc1nnc2cc(F)ccc2n1
inactive: [5] 104 % of control | [11] 123 % of control | [6] 108 % of control | dose: 100.0 mg/kg/injection, schedule: Q01DX009 (ip), vehicle: saline 108 % of control | [7] 98 % of control | dose: 200.0 mg/kg/injection, schedule: Q01DX009 (ip), vehicle: saline 113 % of control

CC(C)(C)C1CCC(O)(Cc2ccccc2)CC1 (stereo not given)
inactive: [12] 101 % of control | [13] 91 % of control | [14] 99 % of control
